Molecules are shown by their SMILES.

Assay [1] relates to human cervical tumor cell line HeLa (ATCC CCL-2). Description: SAC-Formation - Nocodazole-Induced Assay. It counts as cell-based. The conditions noted are these: Homo sapiens, HeLa, 24 h, HeLa cells, nocodazole 0.1 μg/ml together with test compound, decrease of mitotic cells (phospho-histone H3 Ser10). A digest of the protocol:
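HeLa cells, plated overnight, were treated 24 h at 37 °C with nocodazole (0.1 μg/ml final) plus test compound (0.005–20 μM, 0.5% DMSO) added at the same time. After fixation, anti-phospho-histone H3 Ser10 and Hoechst staining gave the mitotic cell fraction by imaging. Values came from four-parameter Hill fits.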

For a further assay, the system named is HeLa. Description: Proliferation assay (crystal violet), HeLa. It counts as cell-based. Particulars: Homo sapiens, HeLa, 96 h, HeLa cells; 4 days incubation; crystal violet staining; read-out: IC50 inhibition of proliferation, HeLa. A digest of the protocol: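 Seed 1000–5000 cells/well, 10% FCS; 24 h later replace medium and add compound (0.001–10 μM, 0.5% DMSO); incubate 4 d; glutaraldehyde fix, 0.1% crystal violet pH 3.0, elute with 10% acetic acid; A595; 4-parameter IC50.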

On to `Cc1nsc(Nc2cnc(C(F)(F)F)cn2)c1C(=O)Nc1ccc(O[C@H]2CCCN(CCC(F)(F)F)C2)nc1` [Example 390, 3-methyl-5-{[5-(trifluoromethyl)pyrazin-2-yl]amino}-N-(6-{[(3S)-1-(3,3,3-trifluoropropyl)piperidin-3-yl]oxy}pyridin-3-yl)-1,2-thiazole-4-carboxamide], for which the results for the IC50 (in assay [1]; with HeLa) were 110 nM and 320 nM, respectively.
The matching figures for `Cc1nsc(Nc2cnc(C(F)(F)F)cn2)c1C(=O)Nc1ccc(OCCN(C)CC(F)F)nc1` [Example 349, N-(6-{2-[(2,2-difluoroethyl)(methyl)amino]ethoxy}pyridin-3-yl)-3-methyl-5-{[5-(trifluoromethyl)pyrazin-2-yl]amino}-1,2-thiazole-4-carboxamide]: 81 nM and 350 nM.
As to `Cc1nsc(Nc2cnc(C(F)(F)F)cn2)c1C(=O)Nc1ccc(OCC2CCN(CC(F)(F)F)CC2(F)F)nc1` (stereo not shown) [Example 392, N-(6-{[3,3-difluoro-1-(2,2,2-trifluoroethyl)piperidin-4-yl]methoxy}pyridin-3-yl)-3-methyl-5-{[5-(trifluoromethyl)pyrazin-2-yl]amino}-1,2-thiazole-4-carboxamide], the IC50 was determined as 74 nM in assay [1] and 490 nM with HeLa.
The matching figures for `Cc1nsc(Nc2cnc(C(F)(F)F)cn2)c1C(=O)Nc1ccc(OC2CCN(C(CF)CF)CC2)nc1` [Example 324, N-(6-{[1-(1,3-difluoropropan-2-yl)piperidin-4-yl]oxy}pyridin-3-yl)-3-methyl-5-{[5-(trifluoromethyl)pyrazin-2-yl]amino}-1,2-thiazole-4-carboxamide]: 71 nM and 870 nM.
The matching figures for `Cc1nsc(Nc2cnc(C(F)(F)F)cn2)c1C(=O)Nc1ccc(CCC2CCN(CC(F)F)CC2)nc1` [Example 356, N-(6-{2-[1-(2,2-difluoroethyl)piperidin-4-yl]ethyl}pyridin-3-yl)-3-methyl-5-{[5-(trifluoromethyl)pyrazin-2-yl]amino}-1,2-thiazole-4-carboxamide]: 50 nM and 770 nM.
For the compound `Cc1nsc(Nc2cnc(C(F)(F)F)cn2)c1C(=O)Nc1ccc(O[C@@H]2CCN(CC(F)F)C[C@H]2F)nc1` [Example 366, N-(6-{[(3R,4R)-1-(2,2-difluoroethyl)-3-fluoropiperidin-4-yl]oxy}pyridin-3-yl)-3-methyl-5-{[5-(trifluoromethyl)pyrazin-2-yl]amino}-1,2-thiazole-4-carboxamide], the IC50 was 58 nM in assay [1] and 300 nM with HeLa.
The matching figures for `Cc1nsc(Nc2ccc(C#N)cn2)c1C(=O)Nc1ccc(OC2CCN(CC(F)(F)F)CC2)nc1` [Example 30, 5-[(5-Cyanopyridin-2-yl)amino]-3-methyl-N-(6-{[1-(2,2,2-trifluoroethyl)piperidin-4-yl]oxy}pyridin-3-yl)-1,2-thiazole-4-carboxamide]: 620 nM and 340 nM.
The matching figures for `Cc1nsc(Nc2cnc(C(F)(F)F)cn2)c1C(=O)Nc1ccc(OCC2CCN(CCF)CC2)nc1` [Example 344, N-(6-{[1-(2-fluoroethyl)piperidin-4-yl]methoxy}pyridin-3-yl)-3-methyl-5-{[5-(trifluoromethyl)pyrazin-2-yl]amino}-1,2-thiazole-4-carboxamide]: 290 nM and 990 nM.
The matching figures for `Cc1nsc(Nc2cnc(C(F)(F)F)cn2)c1C(=O)Nc1ccc(F)c(OC[C@@H]2CCCN(CC(F)F)C2)c1` [Example 341, N-(3-{[(3R)-1-(2,2-difluoroethyl)piperidin-3-yl]methoxy}-4-fluorophenyl)-3-methyl-5-{[5-(trifluoromethyl)pyrazin-2-yl]amino}-1,2-thiazole-4-carboxamide]: 27 nM and 440 nM.
Consider `Cc1nsc(Nc2cnc(C(F)(F)F)cn2)c1C(=O)Nc1ccc(OCC2CCCN(CCF)C2)nc1` (stereo not shown) [Example 325, N-(6-{[1-(2-fluoroethyl)piperidin-3-yl]methoxy}pyridin-3-yl)-3-methyl-5-{[5-(trifluoromethyl)pyrazin-2-yl]amino}-1,2-thiazole-4-carboxamide], for which the IC50 in assay [1] was 110 nM; with HeLa it was 620 nM.
The matching figures for `Cc1nsc(Nc2cnc(C(F)(F)F)cn2)c1C(=O)Nc1ccc(OCCCN(C)CCC(F)(F)F)nc1` [Example 355, 3-methyl-N-(6-{3-[methyl(3,3,3-trifluoropropyl)amino]propoxy}pyridin-3-yl)-5-{[5-(trifluoromethyl)pyrazin-2-yl]amino}-1,2-thiazole-4-carboxamide]: 150 nM and 330 nM.
The matching figures for `Cc1nsc(Nc2cnc(C(F)(F)F)cn2)c1C(=O)Nc1ccc(O[C@@H]2CCN(CC(F)F)C2)nc1` [Example 379, N-(6-{[(3R)-1-(2,2-difluoroethyl)pyrrolidin-3-yl]oxy}pyridin-3-yl)-3-methyl-5-{[5-(trifluoromethyl)pyrazin-2-yl]amino}-1,2-thiazole-4-carboxamide]: 34 nM and 620 nM.
The like results for `Cc1nsc(Nc2cnc(C(F)(F)F)cn2)c1C(=O)Nc1ccc(F)c(OC[C@@H]2CCN(CC(F)(F)F)C2)c1` [Example 339, N-(4-fluoro-3-{[(3R)-1-(2,2,2-trifluoroethyl)pyrrolidin-3-yl]methoxy}phenyl)-3-methyl-5-{[5-(trifluoromethyl)pyrazin-2-yl]amino}-1,2-thiazole-4-carboxamide] were, in that order, 40 nM and 380 nM.
As for `Cc1nsc(Nc2cnc(C(F)(F)F)cn2)c1C(=O)Nc1ccc(OCCCN(C)CCF)nc1` [Example 352, N-(6-{3-[(2-fluoroethyl)(methyl)amino]propoxy}pyridin-3-yl)-3-methyl-5-{[5-(trifluoromethyl)pyrazin-2-yl]amino}-1,2-thiazole-4-carboxamide], the IC50 in assay [1] was determined as 470 nM; in the assay with HeLa, 1100 nM.
The like results for `Cc1nsc(Nc2cnc(C(F)(F)F)cn2)c1C(=O)Nc1ccc(N2CCN(CCC(F)(F)F)CC2)cn1` [Example 374, 3-methyl-5-{[5-(trifluoromethyl)pyrazin-2-yl]amino}-N-{5-[4-(3,3,3-trifluoropropyl)piperazin-1-yl]pyridin-2-yl}-1,2-thiazole-4-carboxamide] were, in that order, 120 nM and 920 nM.
The matching figures for `Cc1nsc(Nc2cnc(C(F)(F)F)cn2)c1C(=O)Nc1ccc(O[C@@H]2CCN(CCC(F)(F)F)C2)nc1` [Example 381, 3-methyl-5-{[5-(trifluoromethyl)pyrazin-2-yl]amino}-N-(6-{[(3R)-1-(3,3,3-trifluoropropyl)pyrrolidin-3-yl]oxy}pyridin-3-yl)-1,2-thiazole-4-carboxamide]: 47 nM and 410 nM.
The matching figures for `CCCN1CC[C@@H](Oc2ccc(NC(=O)c3c(C)nsc3Nc3cnc(C(F)(F)F)cn3)cn2)[C@H](F)C1` [Example 371, N-(6-{[(3R,4R)-3-fluoro-1-propylpiperidin-4-yl]oxy}pyridin-3-yl)-3-methyl-5-{[5-(trifluoromethyl)pyrazin-2-yl]amino}-1,2-thiazole-4-carboxamide]: 27 nM and 320 nM.
